Results as given in publication PMC10707737, “Indole Diterpene Derivatives from the Aspergillus flavus GZWMJZ-288, an Endophytic Fungus from Garcinia multiflora” (Molecules, 2023).
“Also recorded” adds a separate entry of the source.

Target: T1, NPC1L1 (Homo sapiens, UniProt Q9UHC9)
T1 sequence (Q9UHC9 22-1359): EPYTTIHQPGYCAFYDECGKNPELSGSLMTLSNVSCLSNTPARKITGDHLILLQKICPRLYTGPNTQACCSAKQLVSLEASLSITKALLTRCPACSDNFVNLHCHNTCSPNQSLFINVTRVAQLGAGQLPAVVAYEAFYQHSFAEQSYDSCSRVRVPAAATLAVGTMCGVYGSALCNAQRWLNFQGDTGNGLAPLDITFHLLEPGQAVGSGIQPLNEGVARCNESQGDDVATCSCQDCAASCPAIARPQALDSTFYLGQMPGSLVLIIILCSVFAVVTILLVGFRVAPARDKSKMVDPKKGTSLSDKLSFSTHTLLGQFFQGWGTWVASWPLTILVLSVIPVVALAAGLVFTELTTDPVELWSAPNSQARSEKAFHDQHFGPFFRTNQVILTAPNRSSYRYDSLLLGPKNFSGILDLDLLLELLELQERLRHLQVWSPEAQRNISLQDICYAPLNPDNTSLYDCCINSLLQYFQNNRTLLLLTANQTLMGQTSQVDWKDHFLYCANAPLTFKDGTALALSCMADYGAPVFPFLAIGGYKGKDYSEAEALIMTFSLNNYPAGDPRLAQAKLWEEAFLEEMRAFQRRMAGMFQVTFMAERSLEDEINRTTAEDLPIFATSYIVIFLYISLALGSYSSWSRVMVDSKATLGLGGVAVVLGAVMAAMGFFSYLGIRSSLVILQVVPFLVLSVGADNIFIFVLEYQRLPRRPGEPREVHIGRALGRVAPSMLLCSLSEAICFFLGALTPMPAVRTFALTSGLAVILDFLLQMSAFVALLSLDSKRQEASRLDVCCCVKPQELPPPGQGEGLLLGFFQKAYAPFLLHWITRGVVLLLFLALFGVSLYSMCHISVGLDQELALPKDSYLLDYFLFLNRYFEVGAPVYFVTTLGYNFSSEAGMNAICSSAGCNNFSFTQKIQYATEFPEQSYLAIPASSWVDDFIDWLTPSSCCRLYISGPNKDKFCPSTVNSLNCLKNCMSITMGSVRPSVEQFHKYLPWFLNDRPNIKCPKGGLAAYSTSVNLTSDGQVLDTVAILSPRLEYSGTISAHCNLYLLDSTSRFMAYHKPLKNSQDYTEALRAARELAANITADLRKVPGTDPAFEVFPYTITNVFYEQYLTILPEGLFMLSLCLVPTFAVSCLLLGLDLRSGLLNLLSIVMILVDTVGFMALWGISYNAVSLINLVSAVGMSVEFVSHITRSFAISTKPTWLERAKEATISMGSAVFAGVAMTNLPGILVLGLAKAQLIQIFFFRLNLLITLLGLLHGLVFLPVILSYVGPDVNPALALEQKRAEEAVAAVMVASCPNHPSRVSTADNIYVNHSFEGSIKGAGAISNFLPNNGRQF
Test: Combining ability test with NPC1L1 (SPR, Biacore)
Format: binding
Conditions: fixed concentration 10 μM; ezetimibe positive control
Method: NPC1L1 is currently considered to be the key protein for cholesterol absorption. It is impossible to evaluate the activity of targeting compounds on NPC1L1 through colorimetry assay due to NPC1L1′s lack of catalytic activity. The experiment was carried out under fixed concentration at 10 μM with ezetimibe as a positive control. Excess reactive esters on the sensor chip surface were blocked with 1 M ethanolamine (pH 8.5) for 7 min. The flow cell used for reference was activated and blocked as described above but remained uncoupled. Binding is typically reported in response units (RUs), which is defined as the response obtained from the flow cell containing the immobilized receptor minus the response obtained from the reference flow cell. CM5 series sensor chips and coupling reagents EDC and NHS were purchased from GE. The surface of the flow cell was activated for 7 min using a 1:1 mixture of 100 mM EDC and 100 mM NHS at a flow rate of 10 μL/mi. Subsequently, the corresponding proteins were injected over the surface for 7 min using the time and flow method (final immobilization level: 15,000 RU). Excess reactive esters on the sensor chip surface were blocked with 1 M ethanolamine (pH 8.5) for 7 min. The ability of compounds to combine with NPC1L1 protein was determined by the response value.

SMILES: CC(C)C1=C(c2c[nH]c3ccccc23)[C@@H]2[C@H](C)CC[C@@]3(C)[C@H](C)CC[C@H](O)C23CC1 (stereo partly drawn) [Compound 6, aflavinine]
- binding ability with NPC1L1 (SPR response): could bind well with NPC1L1; also recorded: stronger than that of ezetimibe; also recorded: stronger binding ability with NPC1L1 than ezetimibe

SMILES: CC(=O)OCC(C)C1=C(c2c[nH]c3ccccc23)C2C(C)CC(O)C3(C)C(C)CCC(O)C23CC1 (stereo not drawn) [Compound 1, 26-dihydroxyaflavininyl acetate]
- binding ability with NPC1L1 (SPR response): could bind well with NPC1L1; also recorded: comparable binding ability with NPC1L1

SMILES: C=C(C)C1CCC23[C@H](C1c1c[nH]c4ccccc14)[C@H](C)C[C@@H](O)[C@@]2(C)[C@H](C)CC[C@@H]3O (stereo partly drawn) [Compound 4, 14-eoi-14-hydroxy10,23-dihydro-24,25-dehydroaflavinine]
- binding ability with NPC1L1 (SPR response): could bind well with NPC1L1; also recorded: comparable binding ability with NPC1L1
